Experimental data as given in patent US20020111274A1, “1-alkyl-3-[1-(substituted phenyl) benzotriazol-6-yl] uracils” (BASF Aktiengesellschaft, priority 2000, published 2002).

CCc1cccc(-n2nnc3cc(F)c(-n4c(=O)cc(C(F)(F)F)[nH]c4=O)cc32)c1 [Example 13, 3-[1-(3-ethylphenyl)-5-fluoro-1H-1,2,3-benzotriazol-6-yl]-6-(trifluoromethyl)-2,4(1H,3H)-pyrimidinedione]
melting point: 160 °C
